Assay results as given in article PMC8421423, “Cellular model system to dissect the isoform-selectivity of Akt inhibitors” (Nature Communications, 2021).
Several values for one entry are separate records, joined by “and”; a condition that tells them apart may be missing. Equal entries are not always repeated. Where two headings read alike, the source gives them in different places.

Columns and labels:
[1] = tested on: parental Ba/F3 cells; test: CellTiter-Glo cell viability assay; type: cell-based, murine
Procedure: (§1) On day 0, cells were plated into white 384-well cell culture plates (Greiner Bio-One) using a Multidrop reagent dispenser (Thermo Fisher Scientific) at cell numbers that ensure linear and optimal luminescent signal intensity (Ba/F3myr-Akt1: 600 cells/well, Ba/F3myr-Akt2: 800 cells/well, Ba/F3myr-Akt3: 800 cells/well). […] Cell viability was analyzed on day 4 using the CellTiter-Glo Assay (Promega) as per the manufacturer’s instructions. […] All experimental points were measured in duplicates for each plate and were replicated in at least three plates.

[2] = tested on: Ba/F3^myr-Akt1 cells; test: CellTiter-Glo cell viability assay; conditions: for Log ratio EC50 [Akt] / EC50 [Akt], Akt1 / Akt2: cell viability assay Ba/F3 myr-Akt cells, log units
[3] = tested on: Ba/F3^myr-Akt2 cells; test: CellTiter-Glo cell viability assay
Procedure: as §1

[4] = tested on: Ba/F3^myr-Akt3 cells; test: CellTiter-Glo cell viability assay; conditions: for Log ratio EC50 [Akt] / EC50 [Akt], Akt3 / Akt2: cell viability assay Ba/F3 myr-Akt cells, log units
[5] = molecular target: Akt1 (Homo sapiens, UniProt P31749); test: STK HTRF KinEASE activity-based assay (IC50); conditions: for Log ratio IC50 [Akt] / IC50 [Akt], Akt1 / Akt2: biochemical activity based assay, log units
Chain of Akt1 (P31749 whole entry): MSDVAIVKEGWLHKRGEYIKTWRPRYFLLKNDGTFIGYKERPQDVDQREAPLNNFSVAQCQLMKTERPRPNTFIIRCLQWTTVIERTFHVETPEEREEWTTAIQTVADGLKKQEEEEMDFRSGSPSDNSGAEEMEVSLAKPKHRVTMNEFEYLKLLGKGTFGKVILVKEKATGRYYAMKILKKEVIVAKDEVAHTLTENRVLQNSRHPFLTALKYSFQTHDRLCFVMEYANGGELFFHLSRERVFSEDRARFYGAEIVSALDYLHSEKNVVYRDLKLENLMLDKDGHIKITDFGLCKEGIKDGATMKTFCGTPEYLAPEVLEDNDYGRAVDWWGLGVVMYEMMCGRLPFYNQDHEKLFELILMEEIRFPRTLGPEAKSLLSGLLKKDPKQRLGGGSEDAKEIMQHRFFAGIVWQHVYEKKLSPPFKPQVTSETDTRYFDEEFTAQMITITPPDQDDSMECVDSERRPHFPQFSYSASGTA
Procedure: The biochemical half maximal inhibitory concentrations (IC50) were determined with the STK HTRF KinEASE assay (Cisbio) according to the manufactor’s instructions. Briefly: 5 µL Kinase solution and 2.5 µL inhibitor solution (8% DMSO in HTRF buffer) were incubated for 1 h before the reaction was started by addition of 2.5 µL starting solution containing ATP and substrate peptide. […] After reaction completion (Akt1: 60 min, Akt2: 20 min, Akt3: 15 min), 10 µL of stop solution were added. […] The quotient of both intensities were recorded at eight different inhibitor concentrations and data fit to a Hill 4-parameter equation with Quattro software suite (Quattro Research GmbH, Martinsried, Germany). Each reaction was performed in duplicates and at least three independent determinations of each IC50 were made.

[6] = molecular target: Akt2 (Homo sapiens, UniProt P31751); test: STK HTRF KinEASE activity-based assay (IC50)
Chain of Akt2 (P31751 whole entry): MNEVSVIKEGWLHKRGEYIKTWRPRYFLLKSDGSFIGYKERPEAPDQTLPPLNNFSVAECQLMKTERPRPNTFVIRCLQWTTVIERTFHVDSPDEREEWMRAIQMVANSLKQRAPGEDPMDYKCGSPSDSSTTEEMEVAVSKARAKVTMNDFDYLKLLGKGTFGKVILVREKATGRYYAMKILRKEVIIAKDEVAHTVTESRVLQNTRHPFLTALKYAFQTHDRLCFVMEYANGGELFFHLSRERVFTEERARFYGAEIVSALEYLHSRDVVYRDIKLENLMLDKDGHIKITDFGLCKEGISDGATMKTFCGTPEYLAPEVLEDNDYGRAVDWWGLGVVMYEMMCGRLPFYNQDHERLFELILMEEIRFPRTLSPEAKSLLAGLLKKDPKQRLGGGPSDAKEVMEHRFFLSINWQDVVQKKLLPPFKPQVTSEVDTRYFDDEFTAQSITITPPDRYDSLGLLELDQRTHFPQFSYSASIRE

[7] = molecular target: Akt3 (Homo sapiens, UniProt Q9Y243); test: STK HTRF KinEASE activity-based assay (IC50)
Chain of Akt3 (Q9Y243 whole entry): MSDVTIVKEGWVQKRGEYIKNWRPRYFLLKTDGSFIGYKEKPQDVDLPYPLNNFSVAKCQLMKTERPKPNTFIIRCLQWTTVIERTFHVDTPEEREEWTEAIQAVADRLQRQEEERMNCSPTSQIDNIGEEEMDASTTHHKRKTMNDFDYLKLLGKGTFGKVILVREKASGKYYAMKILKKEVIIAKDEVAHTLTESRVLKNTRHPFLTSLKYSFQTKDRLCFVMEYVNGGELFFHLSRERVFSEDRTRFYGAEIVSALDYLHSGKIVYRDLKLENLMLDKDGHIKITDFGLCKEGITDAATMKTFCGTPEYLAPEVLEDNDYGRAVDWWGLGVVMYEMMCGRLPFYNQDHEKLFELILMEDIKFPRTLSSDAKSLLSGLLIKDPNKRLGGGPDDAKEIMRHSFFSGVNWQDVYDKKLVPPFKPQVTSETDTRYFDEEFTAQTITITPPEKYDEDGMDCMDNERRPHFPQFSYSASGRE

[8] = Mus musculus, BaF3, parental cells, mean of replicates, read-out: CTG BaF3, Mean
[9] = parental cells, single replicates, read-out: CTG BaF3, individual determinations
[10] = Mus musculus, read-out: CTG BaF3myr-Akt1, Mean, mean of replicates
[11] = read-out: CTG BaF3myr-Akt1, individual determinations, single replicates
[12] = Mus musculus, read-out: CTG BaF3myr-Akt2, Mean, mean of replicates
[13] = Mus musculus, read-out: CTG BaF3myr-Akt2, individual determinations, single replicates
[14] = read-out: CTG BaF3myr-Akt2, individual determinations, single replicates
[15] = Mus musculus, read-out: CTG BaF3myr-Akt3, Mean, mean of replicates
[16] = Mus musculus, read-out: CTG BaF3myr-Akt3, individual determinations, single replicates
[17] = read-out: CTG BaF3myr-Akt3, individual determinations, single replicates
[18] = HTRF IC50 Akt1, Mean, mean of replicates
[19] = HTRF IC50 Akt1, individual determinations, single replicates
[20] = IC50 Akt1, HTRF, ATP at KM, 1 h preincubation
[21] = HTRF IC50 Akt2, Mean, mean of replicates
[22] = HTRF IC50 Akt2, individual determinations, single replicates
[23] = IC50 Akt2, HTRF, ATP at KM, 1 h preincubation
[24] = HTRF IC50 Akt3, Mean, mean of replicates
[25] = HTRF IC50 Akt3, individual determinations, single replicates
[26] = IC50 Akt3, HTRF, ATP at KM, 1 h preincubation
[27] = read-out: HTRF IC50 Akt3, individual determinations, single replicates
[28] = Mus musculus, BaF3, CTG, parental BaF3 cell line, read-out: EC50 BaF3
[29] = Mus musculus, BaF3, parental cells, single replicates, read-out: CTG BaF3, individual determinations
[30] = Mus musculus, read-out: CTG BaF3myr-Akt1, individual determinations, single replicates
[31] = Mus musculus, read-out: EC50 BaF3myr-Akt1, CTG

Row | SMILES | EC50 [2, 10] [µM] | EC50 [2, 11] | EC50 [3, 12] [µM] | EC50 [3, 14] | EC50 [4, 15] [µM] | EC50 [4, 16] [µM] | EC50 [4, 17] | IC50 [5, 18] [µM] | IC50 [5, 19] | IC50 [5, 20] [µM] | Log ratio IC50 [Akt] / IC50 [Akt], Akt1 / Akt2 [5] | IC50 [6, 22] | IC50 [6, 23] [µM] | IC50 [7, 25] | IC50 [7, 26] [µM] | EC50 [1, 8] [µM] | EC50 [1, 9] | Log ratio EC50 [Akt] / EC50 [Akt], Akt1 / Akt2 [2] | Log ratio EC50 [Akt] / EC50 [Akt], Akt3 / Akt2 [4] | EC50 [1, 29] [µM] | other results
1 | C=CC(=O)Nc1ccc2[nH]c(=O)n(C3CCN(Cc4ccc(-c5ncc(Cc6ccc(N)cc6)cc5-c5ccccc5)cc4)CC3)c2c1 [compound 19] | 12.7 | 19.7 µM and 8.66 µM and 9.89 µM | 2.89 | 3.83 µM and 2.66 µM | 7.44 | 6.61 | 7.03 µM and 8.07 µM | 1.8 | 1.9 µM and 1.84 µM and 1.65 µM | 1.8 ± 0.105 | 0.55 | 0.523 µM and 0.43 µM and 0.581 µM | 0.511 ± 0.062 | 2.03 µM and 1.41 µM and 1.09 µM | 1.51 ± 0.389 | 12.5 | 6.98 µM and 7.49 µM and 18.8 µM | 0.64 | -0.41 | – | EC50 [3, 13]: 2.19 µM; IC50 [6, 21]: 0.511 µM; loss of potency of the anilinic CAAI ([7]; Akt3, biochemical IC50): 10 fold; IC50 [7, 24]: 1.51 µM
2 | C=CC(=O)Nc1ccc2[nH]c(=O)n(C3CCN(Cc4ccc(-c5ncc(C(=O)O)cc5-c5ccccc5)cc4)CC3)c2c1 [compound 4] | – | > 30 µM | – | > 30 µM | – | – | > 30 µM | – | – | – | -0.75 | – | – | – | – | – | > 30 µM | 0 | 0 | – | EC50 ([1]; CTG, parental BaF3 cell line, read-out: EC50 BaF3): > 30 µM; EC50 ([1]; parental cells, mean of replicates, read-out: CTG BaF3, Mean): > 30 µM; EC50 BaF3myr-Akt1 ([2]; CTG): generally inactive; EC50 ([2]; read-out: CTG BaF3myr-Akt1, Mean, mean of replicates): > 30 µM; EC50 ([2]; read-out: EC50 BaF3myr-Akt1, CTG): > 30 µM; EC50 BaF3myr-Akt2 ([3]; CTG): generally inactive; EC50 ([3]; read-out: CTG BaF3myr-Akt2, Mean, mean of replicates): > 30 µM; EC50 ([3]; read-out: EC50 BaF3myr-Akt2, CTG): > 30 µM; EC50 BaF3myr-Akt3 ([4]; CTG): generally inactive; EC50 ([4]; read-out: CTG BaF3myr-Akt3, Mean, mean of replicates): > 30 µM; EC50 ([4]; read-out: EC50 BaF3myr-Akt3, CTG): > 30 µM; IC50 ([5]; read-out: HTRF IC50 Akt1, Mean, mean of replicates): 0.0443 µM; IC50 ([5]; read-out: HTRF IC50 Akt1, individual determinations, single replicates): 0.0455 µM and 0.0221 µM and 0.0653 µM; IC50 ([5]; read-out: IC50 Akt1, HTRF, ATP at KM, 1 h preincubation): 0.044 ± 0.018 µM; IC50 ([6]; read-out: HTRF IC50 Akt2, Mean, mean of replicates): 0.248 µM; IC50 ([6]; read-out: HTRF IC50 Akt2, individual determinations, single replicates): 0.189 µM and 0.309 µM and 0.245 µM; IC50 ([6]; read-out: IC50 Akt2, HTRF, ATP at KM, 1 h preincubation): 0.248 ± 0.049 µM; IC50 [7, 27]: 5.7 µM and 7.19 µM and 8.39 µM; IC50 ([7]; read-out: IC50 Akt3, HTRF, ATP at KM, 1 h preincubation): 6.45 ± 0.742 µM
3 | C=CC(=O)Nc1ccc2[nH]c(=O)n(C3CCN(Cc4ccc(-c5ncc(CN6CCCC6)cc5-c5ccccc5)cc4)CC3)c2c1 [compound 7] | 4.71 | 4.27 µM and 4.14 µM and 6.2 µM | 1.78 | 1.58 µM and 3 µM and 1.35 µM and 1.19 µM | 2.51 | 2.06 | 1.92 µM and 3.02 µM and 3.04 µM | 7.09 | 10 µM and 10.5 µM and 4.2 µM and 7.74 µM and 8.28 µM and 1.75 µM | 7.09 ± 3.44 | 1.17 | 0.535 µM and 0.351 µM and 0.552 µM | 0.479 ± 0.091 | > 20 µM | > 20 | 8.46 | 8.01 µM and 10.4 µM | 0.42 | -0.15 | 6.97 | EC50 [2, 30]: 4.23 µM; IC50 [6, 21]: 0.479 µM; IC50 [7, 24]: > 20 µM; IC50 [7, 27]: > 20 µM
4 | NC1(c2ccc(-c3nc4ccn5c(=O)[nH]nc5c4cc3-c3ccccc3)cc2)CCC1 [MK-2206, reference compound] | 1.12 | 0.987 µM and 1.22 µM | 1.34 | 1.97 µM and 0.931 µM and 1.12 µM | 5.73 | 5.9 | 5.57 µM | – | – | – | – | – | – | – | – | 7.39 | 5.09 µM and 9.92 µM | – | – | 6.96 | EC50 [2, 30]: 1.16 µM

Further lines, with some results ahead:

Row | EC50 [2, 10] [µM] | EC50 [2, 11] | EC50 [3, 12] [µM] | EC50 [3, 14] | EC50 [4, 15] [µM] | EC50 [4, 16] [µM] | EC50 [4, 17] | IC50 [5, 18] [µM] | IC50 [5, 19] | IC50 [5, 20] [µM] | Log ratio IC50 [Akt] / IC50 [Akt], Akt1 / Akt2 [5] | IC50 [6, 22] | IC50 [6, 23] [µM] | IC50 [7, 25] | IC50 [7, 26] [µM] | SMILES | EC50 [1, 8] [µM] | EC50 [1, 9] | Log ratio EC50 [Akt] / EC50 [Akt], Akt1 / Akt2 [2] | Log ratio EC50 [Akt] / EC50 [Akt], Akt3 / Akt2 [4] | EC50 [1, 29] [µM] | other results
5 | > 30 | > 30 µM | 3.75 | 4.24 µM and 2.81 µM | 22 | 21.7 | 17.8 µM and 24.3 µM | 2.85 | 2.55 µM and 3.9 µM and 2.12 µM | 2.85 ± 0.758 | 1.33 | 0.136 µM and 0.142 µM and 0.121 µM | 0.133 ± 0.009 | 1.48 µM and 2.41 µM and 2.43 µM | 2.11 ± 0.441 | C=CC(=O)Nc1ccc2[nH]c(=O)n(C3CCN(Cc4ccc(-c5ncc(Cc6cccc(N)c6)cc5-c5ccccc5)cc4)CC3)c2c1 [compound 17] | > 30 | > 30 µM | 0.90 | -0.77 | > 30 | EC50 [1, 28]: > 30 µM; EC50 [2, 30]: > 30 µM; EC50 [2, 31]: > 30 µM; EC50 [3, 13]: 3.2 µM; IC50 [6, 21]: 0.133 µM; IC50 [7, 24]: 2.11 µM
6 | > 30 | > 30 µM | – | 16.5 µM and > 30 µM | > 30 | > 30 | > 30 µM | 9.48 | 10.2 µM and 9 µM and 9.2 µM | 9.48 ± 0.665 | 1.14 | 0.766 µM and 1.08 µM and 0.599 µM | 0.682 ± 0.083 | 4.32 µM and 3.56 µM and 8.14 µM | 5.34 ± 2.01 | C=CC(=O)Nc1ccc2[nH]c(=O)n(C3CCN(Cc4ccc(-c5ncc(Cc6cccc(O)c6)cc5-c5ccccc5)cc4)CC3)c2c1 [compound 16] | > 30 | > 30 µM | 0.07 | -0.07 | > 30 | EC50 [1, 28]: > 30 µM; EC50 BaF3myr-Akt1 ([2]; CTG): generally inactive; EC50 [2, 30]: > 30 µM; EC50 [2, 31]: > 30 µM; EC50 [3, 13]: > 30 µM; EC50 BaF3myr-Akt3 ([4]; CTG): generally inactive; EC50 ([4]; Mus musculus, read-out: EC50 BaF3myr-Akt3, CTG): > 30 µM; IC50 [6, 21]: 0.682 µM; IC50 [7, 24]: 5.34 µM
7 | 26.7 | 22.1 µM | 14.3 | 11.5 µM and 13.9 µM and 23.9 µM and 7.94 µM | 17.2 | 15.7 | 18.6 µM and 17.2 µM | 0.604 | 0.57 µM and 0.597 µM and 0.645 µM | 0.604 ± 0.031 | -0.37 | 1.3 µM and 1.34 µM and 1.56 µM | 1.4 ± 0.112 | 4.83 µM and 5.38 µM and 2.87 µM | 4.36 ± 1.08 | C=CC(=O)Nc1ccc2[nH]c(=O)n(C3CCN(Cc4ccc(-c5ncc(Cc6ccc(C)o6)cc5-c5ccccc5)cc4)CC3)c2c1 [compound 15] | – | > 30 µM and 25.7 µM | 0.27 | -0.08 | > 30 | EC50 [2, 30]: 28 µM
